Tests used:
[1] = Pharmacokinetics and bioavailability of oral vs intravenous baclofen, randomized open-label 2-way crossover study (Example 3); format: in vivo, human; conditions: for Cmax: single dose
Description: (§1) Twelve healthy human volunteers were recruited. The volunteers were medication free for 48 hours before, during, and 24 hours after the administration of the study drug.
(§2) The 12 volunteers participated in a randomized, open-label, 2-way crossover study to compare the pharmacokinetics and bioavailability of oral baclofen with an intravenous baclofen formulation. The oral formulation was a 10 mg baclofen tablet. A single intravenous dose of 5 mg was administered over 15 minutes, using the commercially available 2 mg/mL intrathecal baclofen formulation (Lioresal Intrathecal). Blood samples (6 mL) for the measurement of plasma concentrations of baclofen were collected in blood collection tubes containing K2 ethylenediaminetetraacetic acid at the following times: prior to dosing; at 5, 15, and 30 minutes; and at 1, 2, 4, 6, 8, 10, 12, and 24 hours after drug administration.
Study plasma samples were prepared by adding 50 μL of a 500 μg/mL levetiracetam solution (internal standard) to 250 μL of K2 ethylenediaminetetraacetic acid (EDTA) human plasma. Baclofen and the internal standard were extracted from plasma by precipitating the protein with methanol and drying it under nitrogen at approximately 40° C. The dried residues were reconstituted in 300 μL of a mobile phase consisting of 20 mM ammonium acetate-methanol (75:25) solution. After 1 minute of vortex mixing, the reconstituted sample solution was filtered and injected onto the high-performance liquid chromatograph-mass spectrometer system. Standard curve samples over a range of 20 to 400 ng/mL baclofen and quality control samples containing 30 (low), 80 (medium), and 240 ng/mL (high) baclofen were prepared and analyzed in triplicate along with the study samples. The assay was linear over the range 20-400 ng/mL with a lower limit of quantification of 20 ng/mL.
Baclofen concentration-time data were analyzed using a noncompartmental pharmacokinetic approach with Phoenix software (version 6.2; Pharsight Corporation, Mountain View, Calif.). The terminal rate constant (λz) was determined from the slope of the terminal log-linear portion of the plasma concentration-time curve, and the terminal half-life (t1/2) was calculated as In 2/(λz). Maximum plasma concentrations (Cmax) and time to maximum concentration (Tmax) were determined by direct observation of the data. The area under the concentration-time curve to the last nonzero plasma concentration (Clast) that was above half the lower limit of quantification (10 ng/mL) was calculated by the trapezoidal rule and reported as AUClast The area under the concentration-time curve extrapolated to infinity (AUC0-∞) was calculated as AUClast+(Clast/λz). Mean and standard deviation values for the parameters were also obtained using the descriptive statistics tool in Phoenix version 6.2. A paired t-test was used to determine if statistical differences existed in log normalized, dose-adjusted area under the curve between oral and intravenous arms.

[2] = system: healthy human volunteers; assay: Tolerability of the intravenous formulation in the crossover study (Example 3); format: in vivo
Description: as §1, §2

[3] = Pharmacokinetics of oral and intravenous baclofen at clinically relevant doses, dose escalation crossover study (Example 4); format: in vivo, human; conditions: for Cmax / half-life / bioavailability: human, plasma
Description: (§3) Thirty-six healthy adults participated in the study.
(§4) The thirty-six subjects were enrolled in a randomized, open-label, cross over study to evaluate the safety profile and pharmacokinetics of oral and an investigational intravenous baclofen formulation at clinically relevant doses. Three cohorts of twelve subjects received single doses of baclofen: 7.5, 11.5 or 15 mg intravenously and 10, 15, or 20 mg taken orally with a 48 hour washout phase. The highest dosing cohort received an additional 15 mg extended (60 minute) infusion. Blood samples for baclofen pharmacokinetic analysis were collected pre-dose and at regular intervals over a 24 hour time period. Over this 24 hour period subjects were assessed for sedation, nystagmus and ataxia to evaluate clinical response. Maximum concentration (Cmax) and time to maximum concentration (Tmax) were determined by visual inspection. Noncompartmental pharmacokinetic analyses were used to estimate area under the curve (AUC), half life (t1/2), clearance (CL) and volume of distribution. Absolute bioavailability was calculated using dose normalized oral and intravenous AUCs. Dose proportionality was assessed using analysis of variance (ANOVA) and a power model. Bioequivalence was evaluated using Phoenix Software (Centara, Pharsight Corporation, Mountain View, Calif.).

[4] = system: healthy adults; assay: Tolerability/safety (sedation, nystagmus, ataxia) in the dose escalation study (Example 4); format: in vivo, human; conditions: for subjects with asymptomatic nystagmus: 10 minute infusion, of twelve subjects
Description: as §3, §4

[5] = cited from earlier work
[6] = human, plasma, 5 mg IV, mean ± SD
[7] = human, plasma, 10 mg oral, mean ± SD
[8] = iv, 7.5 mg, IV 10 min infusion 7.5 mg, mean
[9] = iv, 11.5 mg, IV 10 min infusion 11.5 mg, mean
[10] = iv, 15 mg, IV 10 min infusion 15 mg, mean
[11] = iv, 15 mg, IV 60 min infusion 15 mg, mean

NCC(CC(=O)O)c1ccc(Cl)cc1 (racemic) [Baclofen, 4-amino-3-(4-chlorophenyl) butanoic acid]
time point of observed maximum baclofen concentration ([1]; 5 mg IV formulation): 5 min
AUC0-∞/Dose ([1]; 5 mg IV, mean ± SD): 141 ± 33 ng·h/mL/mg
AUC0-∞/Dose ([1]; 10 mg oral, mean ± SD): 102 ± 23 ng·h/mL/mg
T1/2 ([1]; 10 mg oral, mean ± SD): 4.03 ± 0.73 h
half-life ([1]; human, plasma, iv, 5 mg, 5 mg IV, mean ± SD): 4.52 h
bioavailability ([1]; human, plasma, oral, 10 mg, 10 mg oral tablet, absolute, vs 5 mg IV, mean ± SD): 74%
half-life ([1]; human, plasma, po, 10 mg, 10 mg oral, mean ± SD): 4 h
AUC(0-inf) [1, 6]: 0.707 ± 0.166 µg·h/mL
AUC(0-t) [1, 6]: 0.593 ± 0.111 µg·h/mL
AUC(0-inf) [1, 7]: 1.02 ± 0.232 µg·h/mL
AUC(0-t) [1, 7]: 0.878 ± 0.199 µg·h/mL
Tmax ([1]; human, plasma, 10 mg oral, median (min, max)): 1 h
Cmax ([1]; human, 5 mg IV over 15 minutes, plasma, mean ± SD, 12 volunteers): 0.31 µg/mL
Cmax ([1]; human, 10 mg oral tablet, plasma, mean ± SD): 0.174 µg/mL
tolerability of the intravenous formulation ([2]; 5 mg IV over 15 minutes): well tolerated
severity of treatment-emergent adverse events ([2]; characterized by the investigator): mild in severity
time for all subjects to return to baseline values after drug administration ([2]; in vivo): ≤ 6 h
Cmax ration ([3]; 15 mg intravenous infusion over 10 minutes vs oral): 263%
Cmax ration ([3]; 15 mg intravenous infusion over 60 minutes vs oral): 149%
dose proportionality of AUC ([3]; ANOVA and power model analysis): greater than proportional increase with dose
AUC(0-inf) ([3]; IV 10 min infusion 7.5 mg, mean): 0.562 µg·h/mL
AUC(0-inf) ([3]; IV 10 min infusion 11.5 mg, mean): 1.186 µg·h/mL
AUC(0-inf) ([3]; IV 10 min infusion 15 mg, mean): 1.52 µg·h/mL
AUC(0-inf) ([3]; IV 60 min infusion 15 mg, mean): 1.447 µg·h/mL
AUC(0-inf) ([3]; PO 10 mg, mean): 0.714 µg·h/mL
AUC(0-inf) ([3]; PO 15 mg, mean): 1.201 µg·h/mL
AUC(0-inf) ([3]; PO 20 mg, mean): 1.598 µg·h/mL
bioequivalence of oral and intravenous doses ([3]; based on AUC and Cmax): bioequivalent based on AUC, but not based on Cmax
dose proportionality of mean Cmax ([3]; both forms of administration, ANOVA and power model): increased proportionally with dose
Cmax [3, 8]: 0.31 µg/mL
half-life [3, 8]: 3.37 h
Cmax [3, 9]: 0.524 µg/mL
half-life [3, 9]: 4.97 h
Cmax [3, 10]: 0.72 µg/mL
half-life [3, 10]: 5.82 h
Cmax [3, 11]: 0.382 µg/mL
half-life [3, 11]: 6.22 h
bioavailability ([3]; oral, data from all cohorts combined, read-out: mean bioavailability): 89%
Cmax ([3]; po, 10 mg, PO 10 mg, mean): 0.124 µg/mL
half-life ([3]; po, 10 mg, PO 10 mg, mean): 3.94 h
Cmax ([3]; po, 15 mg, PO 15 mg, mean): 0.201 µg/mL
half-life ([3]; po, 15 mg, PO 15 mg, mean): 4.65 h
Cmax ([3]; po, 20 mg, PO 20 mg, mean): 0.255 µg/mL
half-life ([3]; po, 20 mg, PO 20 mg, mean): 5.49 h
bioavailability ([3]; po, data from all cohorts combined, read-out: absolute oral bioavailability, range): 42 to 132%
bioavailability ([3]; PO 10 mg (cohort 1), mean, read-out: Bioavailability): 102%
bioavailability ([3]; PO 15 mg (cohort 2), mean, read-out: Bioavailability): 80%
bioavailability ([3]; PO 20 mg (cohort 3), mean, read-out: Bioavailability): 85%
subjects with asymptomatic nystagmus ([4]; 7.5 mg): two
subjects with asymptomatic nystagmus ([4]; 11.5 mg): six
occurrence of nystagmus ([4]; 15 mg 60 minute infusion): not observed
subjects with asymptomatic nystagmus ([4]; 15 mg): six
ataxia ([4]; after the 20 mg oral dose): one subject experienced mild transient ataxia
tolerability ([4]; all oral and IV doses): generally well tolerated
sedation, changes from baseline ([4]; by route of administration or by dose): not statistically significant
adverse effects ([4]; following both oral and intravenous doses): Mild, self-limited adverse effects
solubility in water [5]: slightly soluble in water
